Data set [1] concerns MDA-MB-231 breast cancer cell line. The experiment in a line: Crystal Violet antiproliferative assay, MDA-MB-231. The data set is classed as cell-based. The settings on record: Homo sapiens, MDA-MB-231, 48 h, 48 h of incubation, mean ± S.D. of three separate experiments. As to the method: (§1) The in vitro antiproliferative activity of the newly synthesized conjugates 4a–n and 7a–d was evaluated against breast cancer MDA-MB-231 and MCF-7 cell lines, following the Crystal Violet (CV) cell cytotoxicity assay. Doxorubicin was included in this assay as a positive control, and Sunitinib was used as a reference drug.
(§2) Breast cancer cell lines MDA-MB-231 and MCF-7 cells were obtained from VACSERA Tissue Culture Unit. The cells were propagated in DMEM supplemented with 10% heat-inactivated fetal bovine serum, 1% L-glutamine (2.5 mM), HEPES (4-(2-hydroxyethyl)-1-piperazineethanesulfonic acid) buffer (10 mM) and 50 µg/mL gentamycin. All cells were maintained at 37 °C in a humidified atmosphere with 5% CO2 and were sub-cultured two times a week. Cytotoxicity was determined following the Crystal Violet (CV) cell cytotoxicity assay.
(§3) Test samples were dissolved in DMSO and kept at a stock concentration of 100 mM. Exponentially growing cells were collected using 0.25% Trypsin-EDTA and seeding was done at a density of 3000 cells/well in 96-well plates. After 24 h, the monolayer cultured cells were washed with sterile phosphate buffered saline (0.01 M pH 7.2) and simultaneously the cells were treated with […] from 10 different dilutions of the test compounds as well as Doxorubicin was […] Control wells were exposed to the same concentration of vehicle, DMSO (1%) used in the highest concentration of the test samples. Cell viability was >99% compared to untreated cells. The number of the surviving cells was determined by staining the cells with crystal violet followed by cell lysing using 33% glacial acetic acid. The absorbance was measured at 490 nm using ELISA reader (Thermo Fisher Scientific, Waltham, MA, USA) after gentle shaking. The absorbance values from untreated cells were considered as 100% proliferation.
(§4) The number of viable cells was determined using ELISA reader as previously mentioned and the percentage of viability was calculated as […] where ODt is the mean optical density of wells treated with the test sample and ODc is the mean optical density of untreated cells. The 50% inhibitory concentration (IC50) was estimated from graphic plots of the dose response curve for each conc. using GraphPad Prism software, Version 5 (San Diego, CA, USA). The data presented are the mean of at least three separate experiments.

The subject of data set [2] is MCF-7 breast cancer cell line. The experiment in a line: Crystal Violet antiproliferative assay, MCF-7. In kind it is cell-based. To be noted: for IC50: Homo sapiens, MCF7, 48 h, Crystal Violet assay, 48 h of incubation, mean ± S.D. of three separate experiments. The protocol: as §1, §2, §3, §4
The test system of data set [3] is lung fibroblast cell line (WI-38). In words: Crystal violet cytotoxicity towards nontumorigenic WI-38. In kind it is cell-based. The settings on record: Homo sapiens, nontumorigenic cells, mean ± S.D. of three separate experiments. The protocol: (§5) The cytotoxic activity of the active conjugates towards MDA-MB-231 cells (4c–e, 4g, 4l–n and 7a–d) was examined against nontumorigenic human lung fibroblast cell line (WI-38) and human breast epithelial cell line (MCF-10A) to investigate the potential safety of the newly prepared conjugates towards the normal cells. […] The results were expressed as IC50 values, and selectivity index was calculated (Table 2).
(§6) The cytotoxic activity of the active conjugates towards nontumorigenic human lung fibroblast cell line (WI-38) and human breast epithelial cell line (MCF-10A) was determined using Crystal violet (CV) cell cytotoxicity assay according to the previously published procedures.

The test system of data set [4] is breast epithelial cell line (MCF-10A). The experiment in a line: Crystal violet cytotoxicity towards nontumorigenic MCF-10A. The data set is classed as cell-based, human. The settings on record: for IC50: Homo sapiens, MCF-10A, nontumorigenic cells, mean ± S.D. of three separate experiments; for Selectivity Index (MCF-10A/MDA-MB-231): ratio of IC50 MCF-10A to IC50 MDA-MB-231. As to the method:
as §5, §6

The subject of another data set is Bax. The experiment in a line: ELISA immunoassay of Bax level in MDA-MB-231 cells. In kind it is cell-based. To be noted: MDA-MB-231 cells treated at IC50 concentration; for Bax / Bax, number of folds of control: 48 h; for Bax/Bcl-2: control 3.9. The protocol:
(§7) In our study, we investigated the effect of conjugates 4m and 7b towards the level of the antiapoptotic Bcl2 and the level of the pro-apoptotic Bax, (Table 3, Figure 2).
(§8) The levels of the apoptotic markers (Bax, caspase-3) as well as the antiapoptotic marker Bcl-2 were determined using ELISA colorimetric kits per the manufacturer’s instructions, as reported earlier. MDA-MB-231 cells were cultured as a monolayer in T-25 flasks and were seeded to attain 30% confluency prior to treatment. […] At the end of treatment, cells were collected via trypsinization and centrifuged at 10,000 rpm. The pellet was then rinsed with PBS and lysed in RIPA lysis buffer at 4 °C for 45 min, then centrifuged at 14,000 rpm for 20 min to remove the cellular debris. Lysates were then collected and stored at −80 °C for later protein determination using Pierce BCA Protein Assay Kit (Pierce Biotechnology, Rockford, IL, USA) according to manufacturer’s recommendations.
(§9) The cell lysate was diluted 10 times, and 100 μL ([…]) was added to the wells of […] that were pre-coated with primary antibodies specific to Bax, Bcl-2 and caspase-3 proteins, respectively. A secondary biotin-linked antibody specific to the protein captured by the primary antibody was further added to bind the captured protein, forming a “sandwich” of specific antibodies around the desired protein in the cell lysate. The streptavidin-HRP complex was then used to bind the biotin-linked secondary antibody through its streptavidin portion. The HRP domain reacted with the added TMB substrate to form a colored product that measured at 450 nm by a plate reader (ChroMate-4300, Orlando, FL, USA) after the reaction was terminated via the addition of stop solution.

In another data set the test system is Bcl-2. The experiment in a line: ELISA immunoassay of Bcl-2 level in MDA-MB-231 cells. In kind it is cell-based. The settings on record: MDA-MB-231 cells treated at IC50 concentration; for Bcl-2 / Bcl-2, number of folds of control: 48 h. As to the method: as §7, §8, §9
A further data set concerns caspase-3. In words: ELISA immunoassay of active caspase-3 level in MDA-MB-231 cells. The data set is classed as cell-based. The settings on record: MDA-MB-231 cells treated at IC50 concentration, 48 h.
From the text: The down-regulation of the antiapoptotic Bcl-2 leads to an increase in the levels of free pro-apoptotic Bax which in turn accumulates at the inner mitochondrial membrane forming channels, altering membrane permeability. Accordingly, the apoptotic factors can leak into the cytoplasm resulting in the caspases cascade activation. As a key executioner protease, caspase-3 is activated by upstream initiator caspases as caspase-9 [48]. Thence, the elevated Bax/Bcl-2 ratios obtained herein triggered the examination of the protein expression levels of active caspases-3. Treatment of TNBC MDA-MB-231 cells with conjugates 4m and 7b led to a significant increase in the active caspase-3 levels by 6.4 and 4.9 folds, respectively, compared to control (Table 3, Figure 3).
as §8, §9

The test system of data set [5] is MDA-MB-231 cells. The experiment in a line: Cell cycle analysis by DNA flow cytometry. In kind it is cell-based. The settings on record: 24 h at IC50 concentration. As to the method: The effect of hybrid 4m on cell cycle progression was evaluated in TNBC MDA-MB-231 cells after 24 h of treatment (Figure 4). Such impact was illustrated by DNA flow cytometric assay where MDA-MB-231 cells were treated with conjugate 4m at its IC50 concentration.
Subsequently, the treated cells were collected by centrifugation, fixed in ice-cold 70% (v/v) ethanol, washed with PBS, re-suspended with 100 μg/mL RNase, stained with 40 μg/mL PI, and analyzed by flow cytometry using FACS Calibur (Becton Dickinson, BD, Franklin Lakes, NJ, USA). The cell cycle distributions were calculated using CellQuest software 5.1 (Becton Dickinson).

Data set [6] deals with MDA-MB-231 cells. The experiment in a line: Annexin V-FITC/PI apoptosis assay. In kind it is cell-based. To be noted: MDA-MB-231 at IC50 concentration. The protocol:
Annexin V-based flow cytometry assay elucidates either that cell death is achieved via programmed apoptosis or nonspecific necrosis.
Phosphatidylserine externalization was assayed using Annexin V-FITC/PI apoptosis detection kit (BD Biosciences, San Jose, CA, USA) according to the manufacturer’s instructions, as reported earlier. MDA-MB-231 cells were cultured to a monolayer then treated with conjugate 4m at its IC50 concentration as described earlier. Cells were then harvested via trypsinization, and rinsed twice in PBS followed by binding buffer. Moreover, cells were re-suspended in 100 μL of binding buffer with the addition of 1 μL of FITC-Annexin V (Becton Dickinson BD Pharmingen^TM, Heidelberg, Germany) followed by an incubation period of 30 min at 4 °C. Cells were then rinsed in binding buffer and resuspended in 150 μL of binding buffer with the addition of 1 μL of DAPI (1 μg/μL in PBS) (Invitrogen, Life Technologies, Darmstadt, Germany). Cells were then analyzed using the flow cytometer BD FACS Canto II (BD Biosciences, San Jose, CA, USA) and the results were interpreted with FlowJo7.6.4 software (Tree Star, Ashland, OR, USA).

The test system of data set [7] is MCF-7 breast cancer cell line. Also on record: method as in PMID 28802125. The settings on record: earlier work of the authors; cited from earlier work.

SMILES strings stand for the structures. Like-named read-outs stand apart in the source and are kept apart here. Some results are limits rather than exact numbers.

The compound `COc1ccc2c(c1)C(=c1sc3nc4ccccc4n3c1=O)C(=O)N2` [Compound 7b, 2-(5-Methoxy-2-oxoindolin-3-ylidene)benzo[4,5]imidazo[2,1-b]thiazol-3(2H)-one] had a melting point of over 300 °C. The compound also gave a 50% inhibitory concentration (IC50) in data set [1] of 13.2 ± 1.7 µM. The IC50 in [2] amounted to 21.7 ± 1.5 µM. Also, in [3], 121 ± 6.9 µM corresponded to half-maximal inhibition (IC50). Moreover, in data set [4], the IC50 is 184 ± 8 µM and the “Selectivity Index (MCF-10A/MDA-MB-231)” value stood at 13.9. Besides, in the data set on Bax, the “Boost of Bax/Bcl-2 ratio compared to control” value came to 16 folds; the Bax is 180.0 ± 7.3 pg/mg of Total Protein; the “Bax, number of folds of control” value is 7.3 folds of control; the Bax/Bcl-2 came to 64.1. Further, in the data set with Bcl-2, the “Downregulation of Bcl-2 expression level compared to control” value is 55.1%; the Bcl-2 is given as 2.8 ± 0.1 ng/mg of Total Protein; the “Bcl-2, number of folds of control” value is 0.45 folds of control. In the data set with caspase-3, the Caspase-3 was 0.15 ± 0.01 ng/mg of Total Protein and the “Caspase-3, number of folds of control” value is recorded as 4.9 folds of control.

In data set [1], `Cc1ccc(N=C2SC(=C3C(=O)Nc4ccc(C)cc43)C(=O)N2c2ccc(C)cc2)cc1` [Compound 4m, 5-(5-Methyl-2-oxoindolin-3-ylidene)-3-(p-tolyl)-2-(p-tolylimino)thiazolidin-4-one] had a 50% inhibitory concentration (IC50) of 7.6 ± 0.5 µM. Further, in data set [2], it took 8.4 ± 0.5 µM to reach half-maximal inhibition (IC50). Moreover, in data set [2] (IC50 ratio to doxorubicin), the “Decreased activity against MCF-7 relative to doxorubicin” value is on record as 2.2 fold. In addition, in [3], the half-inhibitory concentration (IC50) was found to be 49.1 ± 1.9 µM. In addition, in [4], it took 73.1 ± 2.7 µM to reach half-maximal inhibition (IC50) and the “Selectivity Index (MCF-10A/MDA-MB-231)” value is 9.6. In the data set on Bax, the “Boost of Bax/Bcl-2 ratio compared to control” value is given as 33 folds; the Bax was 274.8 ± 13.5 pg/mg of Total Protein; the “Bax, number of folds of control” value is 11.1 folds of control; the Bax/Bcl-2 stood at 130.5. Besides, in the data set with Bcl-2, the “Downregulation of Bcl-2 expression level compared to control” value was 66.6%; the Bcl-2 is 2.1 ± 0.1 ng/mg of Total Protein; the “Bcl-2, number of folds of control” value is listed as 0.33 folds of control. In the data set with caspase-3, the Caspase-3 was 0.19 ± 0.01 ng/mg of Total Protein and the “Caspase-3, number of folds of control” value is reported as 6.4 folds of control. In the data set on MDA-MB-231 cells [5], the “Arrest in G2-M phase compared to control” value was 2.5 folds and the “Rise in percentage of cells at Sub-G1 compared to control” value was 4 folds. For the same compound, the “Increase of annexin V-FITC-positive apoptotic cells compared with control” value with MDA-MB-231 cells [6] is listed as “about 6 folds”. Besides, the “Percent of annexin V-FITC-positive apoptotic cells, early and late (UR + LR)” value in the data set on MDA-MB-231 cells [6] (control 1.92%) came out at 11.43%.

In the case of `NS(=O)(=O)c1ccc(/N=C2\NC(=O)/C(=C3/C(=O)Nc4ccc(Cl)cc43)S2)cc1` [compound VI], the half-inhibitory concentration (IC50) in data set [7] is 3.96 ± 0.21 µM.
